One series is described as follows: BET surface area. The note with it: for Surface Area, BET Surface area (m^2/g): nitrogen adsorbate; for BET surface area of the material tested: material tested in FIG. 10. It is filed as physicochemical. The text has this: (§1) By “relatively greater” it is meant that if the processes of the '782 patent and those of the present invention were run under generally identical conditions but with, for example, ammonium carbonate or bicarbonate used instead of sodium carbonate, the surface area, as measured by BET or otherwise, of the LCH or lanthanum oxycarbonates of the present invention would be even higher than that resulting from the practice of the '782 patent. The ammonium carbonate process of the present invention should yield BET surface areas (SA) in the 1 to 100 m^2/g range for LCH. […] To this end, as used herein “relatively greater BET surface area” refers to the greater BET surface area of the LDOC compound of the present invention when compared to the respective compound in U.S. Pat. No. 7,588,782 when made using similar ingredients, and under similar conditions but using the process described in that patent. As noted above, both processes are capable of producing very fine particles/high surface area. Again without wishing to be bound by any particular theory of operation, it may be that the greater porosity of the materials resulting from the present invention may effectively increase the overall surface area (or more reactive surfaces) allowing for, inter alia, improved binding kinetics. This is predicated on the porosity of individual or primary particles, not aggregates. Thus, it is believed that the primary particles of the invention provide relatively greater porosity than would be measured for particles made in accordance with the '782 patent. […] Furthermore, “porosity” as used herein means cumulative adsorption pore volume determined using a static pressure surface area analyzer with nitrogen as the adsorbate and calculating the pore size by The Barrett, Joyner, and Halenda (BJH) method (Barrett E. P., Loyner L. G. and Halenda P. P., The determination of pore volume and area distributions in porous substances. I. Computations from nitrogen isotherms, J. Am. Chem. Soc. 73 (1951) pp. 373-380).
As contemplated herein, BET surface area of the lanthanum compounds disclosed herein may be determined as provided in U.S. Pat. No. 7,588,782.

A short description of the next series: Bulk density. The series is classed as physicochemical. The note with it: Renazorb-013 (LCH), second block. Here is the method: Bulk density in accordance with the invention can be determined by standard methods.
Graduated Cylinder Tare Weight was determined to be 225 g. 75 grams of sample was sieved into the graduated cylinder. The Gross Weight was determined to be 299.4 g. The volume of this sample was measured to be 141 mL. Thus, the Bulk Density of the powder is: Bulk Density (g/cc)=(299.4−225)/141=74.4/141=0.5277 g/cc Rounding this value to two decimal places gives a final reported value of 0.53 g/cc. 9.2 RSD=(R1−R2)×100/R1 where: RSD=Relative Standard Deviation (%) R1 & R2=Result of individual repeat (g/cc) 9.3 SR=R×100/V where: SR=Standard Recovery (%) R=Result for Reference Standard (g/cc) V=Historical average for standard (g/cc)

Series [1] is described as follows: Porosity (BJH pore volume, pore size; nitrogen adsorption, Micromeritics TriStar 3000). It is filed as physicochemical. Particulars: for Pore Size, Adsorption pore diameter (nm): BJH adsorption; for Pore volume, Adsorption (cumulative) (cm^3/g) / Surface Area, Adsorption (cumulative) (m^2/g): BJH adsorption cumulative; for Pore Size, Desorption pore diameter (nm): BJH desorption; for Pore volume, Desorption (cumulative) (cm^3/g) / Surface Area, Desorption (cumulative) (m^2/g): BJH desorption cumulative; for Pore volume, Total-<6.4182 nM (cm^3/g): pores <6.4182 nM.
Description: as §1
“Pore volume” as used herein refers to the cumulative adsorption pore volume. In one embodiment, the cumulative adsorption pore volume of the LDOC of the present invention is at least 0.015 cm^3/g. In another embodiment, it is at least 0.020 cm^3/g.
The porosity of the LDOC compound referred to herein as RZB-014 was analyzed and compared to that of the LDH and LDOC compounds of the '782 patent discussed above on a Micromeritics TriStar 3000 static pressure surface area analyzer using nitrogen as the adsorbate. The Barrett, Joyner, and Halenda (BJH) method was used to calculate pore size. This method uses the Kelvin model of pore filling and applies only to the mesopore (internal width between approximately 2 and 50 nm) and small macropore size range (internal width between 50 nm and approximately 300 nm).

The nature of series [2]: Phosphate binding kinetics at constant pH, ICP-OES (FIG. 10). The note with it: for phosphate binding at a pH of 3 or below: comparison of both LDOC materials; for amount of phosphate bound in 60 minutes: pH of about 6.5, 60 minutes, FIG. 10. The text has this:
FIG. 10 provides a graphical representation of the binding kinetics of LCH and a lanthanum oxycarbonate in accordance with the '782 patent (RZB-011, RZB-012), and LCH/La2O2CO3 produced in accordance with the present invention (RZB-013 and RZB-014) at 10, 20, 30, 40, […]
It is preferred that the amount of polymorph 037-0804 exceeds that of any other polymorph by weight. In one embodiment, the amount of polymorph 037-0804 is more than 50% of all polymorphs present and, in another embodiment, at least 90% of the polymorphs present of LDOC is La2O2CO3. In another embodiment, polymorph 037-0804 (La2O2CO3) is present in an amount of at least 95% by weight relative to other polymorphs and in still another embodiment, at least 99% by weight. It has also been determined that the phosphate binding kinetic of LDOC resulting from the present invention versus LDOC resulting from the process of the '782 patent are different as well. […] In one embodiment, therefore, the lanthanum oxycarbonate and, in another embodiment, the LDOC of the inventions have a binding kinetic at pH 6.5 at 60 minutes, of at least 150 mg PO4 per gram of lanthanum oxycarbonate/LDOC. In another embodiment, the lanthanum oxycarbonate and LDOC of the invention have a binding kinetic of at least about 180 mg PO4 per gram compound and in still a further embodiment, at least about 200 mg PO4 per gram compound. The BET surface area of the material tested was 6-7 m^2/g for RZB012 (lanthanum oxycarbonate in accordance with the '782 patent) and was about 33.9 for La2O2CO3 in accordance with the invention. Moreover, it is believed that the porosity, bulk density and flow characteristics of LDOC made in accordance with the present invention surpassed those made in accordance with the teachings of the '782 patent.
Phosphate binding kinetics and binding capacity as illustrated in FIG. 10 as described herein (particularly with regard to RZB-012) can be measured as follows:
Stock phosphate solution (0.00527 mol PO43—per Liter—500 mg PO43—per Liter)
3. Using a graduated cylinder measure out 1.0 L of the stock phosphate solution
4. Add the phosphate solution to a 1.5 L Pyrex beaker. The beaker should be sufficiently large to contain the phosphate solution and allow for a 30% volume increase
5. Run at ambient […] or 37° C. as indicated in the analytical request. If 37° C. is requested place the 1.5 L beaker containing the 1.0 L of test solution on a temperature controlled hot plate. Set temperature to 37° C. […] 6. Stir the solution constantly using an electric stirrer equipped with an impeller. Stir rate should be […] (verify with tachometer). 7. Using a 10 ml syringe remove 5 mls of solution and dispense it into a labeled sample tube. This is the T=0 sample 8. […]

For series [3] the following is noted: at 10 minutes, pH 3, FIG. 20 of the '782 patent; cited from earlier work.

As for `O=C([O-])[O-].[La+3].[OH-]` [Batch 101008, lanthanum carbonate hydroxide], in “BET surface area” (Renazorb-013 (LCH), second block of experiments), the “Surface Area” value stood at 14.3 m^2/g. Moreover, in “Bulk density”, the “Bulk Density” value is reported as 0.15 g/cc.

For `O=C([O-])[O-].[La+3].[OH-]` [RZB-011, lanthanum carbonate hydroxide], the pore diameter comparison entry in series [1] is on record as “not much difference in the values of pore diameter”.

Regarding `O=C([O-])[O-].[La+3].[La+3].[O-2].[O-2]` [RZB-14 (264314)], the “Surface Area, BET Surface area (m^2/g)” value in the series “BET surface area” was 32.0039 m^2/g. In series [1], the “Pore Size, Average pore width (nm)” value is given as 3.404 nm; the “Pore Size, Adsorption pore diameter (nm)” value is 5.7595 nm; the “Pore volume, Adsorption (cumulative) (cm^3/g)” value was 0.0499 cm^3/g; the “Surface Area, Adsorption (cumulative) (m^2/g)” value stood at 34.6533 m^2/g. For the same molecule, in series [1], the “Pore Size, Desorption pore diameter (nm)” value was 6.0183 nm; the “Pore volume, Desorption (cumulative) (cm^3/g)” value turned out to be 0.05346 cm^3/g; the “Surface Area, Desorption (cumulative) (m^2/g)” value stood at 35.5324 m^2/g; the “Pore volume, Total-<6.4182 nM (cm^3/g)” value came out at 0.02724 cm^3/g.

For `O=C([O-])[O-].[La+3].[La+3].[O-2].[O-2]` [RZB-14 (264317)], the “Surface Area, BET Surface area (m^2/g)” value in “BET surface area” is on record as 25.3032 m^2/g. In series [1], the “Pore Size, Average pore width (nm)” value worked out at 4.699 nm; the “Pore Size, Adsorption pore diameter (nm)” value is 5.5584 nm; the “Pore volume, Adsorption (cumulative) (cm^3/g)” value turned out to be 0.03991 cm^3/g; the “Surface Area, Adsorption (cumulative) (m^2/g)” value was determined as 28.7342 m^2/g. For the same molecule, in series [1], the “Pore Size, Desorption pore diameter (nm)” value was found to be 4.8008 nm; the “Pore volume, Desorption (cumulative) (cm^3/g)” value amounted to 0.04068 cm^3/g; the “Surface Area, Desorption (cumulative) (m^2/g)” value is 33.8946 m^2/g; the “Pore volume, Total-<6.4182 nM (cm^3/g)” value was found to be 0.02973 cm^3/g.

Consider `O=C([O-])[O-].[La+3].[La+3].[O-2].[O-2]` [RZB-014, Lanthanum dioxycarbonate], for which, in series [2], the “phosphate binding at a pH of 3 or below” value is reported as “about the same” and the “amount of phosphate bound in 60 minutes” value was “approximately 240 mg PO4 bound per gram of compound”. Moreover, the “BET surface area of the material tested” value in “BET surface area” is “about 33.9 m^2/g”. In series [1], the pore diameter comparison result is “not much difference in the values of pore diameter”. The “pore volume compared with RZB-12 and RZB-11” value in series [1] (both lots of RZB-14) was “much higher pore volumes than RZB-12 and slightly bigger pore volume than RZB-11”. Further, the “surface area compared with RZB-11 & 12” value in series [1] (two lots of RZB-14) was “greater”.

As to “lanthanum oxycarbonate [RZB-012, reference compound]”, in series [2], the “phosphate binding at a pH of 3 or below” value is “about the same” and the “amount of phosphate bound in 60 minutes” value is recorded as “about 118 mg PO4 bound per gram of compound”. Besides, the “BET surface area of the material tested” value in the series “BET surface area” is given as 6-7 m^2/g. For the same molecule, the pore diameter comparison result in series [1] is given as “not much difference in the values of pore diameter”.

For the molecule lanthanum tricarbonate tetrahydrate, in series [3], the “percent of the available phosphate bound” value is “about 40%”.

(Values after patent US10350240B2, “Lanthanum carbonate hydroxide, lanthanum oxycarbonate and methods of their manufacture and use” (Spectrum Pharmaceuticals, Inc., priority 2010, dated 2019).)
